Calls of active or inactive are those of the source. No cut-off for these calls is given here.
What was measured:
BV-2 [1] = assay: Cytotoxicity against mouse BV-2 cells assessed as reduction in cell viability at 10 uM incubated for 24 hrs by MTT assay; type: toxicity, cell-based; settings: bv-2, 24 h
BV-2 [2] = assay: Inhibition of LPS-induced NO production in mouse BV-2 cells at 10 uM pre-incubated for 2 hrs followed by LPS stimulation and measured after 24 hrs by Griess reagent based method; type: functional, cell-based; settings: time 26.0 hrs
BV-2 [3] = assay: Inhibition of LPS-induced NO production in mouse BV-2 cells assessed as NO production at 20 uM pre-incubated for 2 hrs followed by LPS stimulation and measured after 24 hrs by Griess reagent based method relative to control; type: functional; set-up: scale not given: the % may be the effect or the level left; settings: time 26 hrs
BV-2 [4] = assay: Inhibition of LPS-induced NO production in mouse BV-2 cells assessed as NO production at 10 uM pre-incubated for 2 hrs followed by LPS stimulation and measured after 24 hrs by Griess reagent based method relative to control; type: functional; set-up: scale not given: the % may be the effect or the level left; settings: time 26 hrs

| SMILES | Activity (BV-2 [1]) | inhibition (BV-2 [2]) | Activity (BV-2 [3]) [%] | Activity (BV-2 [4]) [%] |
| --- | --- | --- | --- | --- |
| CC(=O)OC[C@]12[C@H](OC(C)=O)C(=O)[C@@H]3[C@@H](OC(C)=O)[C@@]14O[C@@]3(C)COC(=O)c1cccnc1CC[C@@](C)(OC(C)=O)C(=O)O[C@@H]([C@H](OC(=O)c1ccccc1)[C@@H]2OC(C)=O)[C@]4(C)O | Non-Toxic | Active |  |  |
| Oc1ccc(/C=C/c2cc(O)cc(O)c2)cc1 [RESVERATROL] |  |  | 21.38 |  |
| C/C=C(\C)C(=O)O[C@@H]1[C@@H]2[C@@H](OC(C)=O)[C@@]34O[C@@]2(C)COC(=O)c2cnccc2CC[C@@](C)(OC(C)=O)C(=O)O[C@@H]([C@H](OC(=O)/C(C)=C/C)[C@H](OC(C)=O)[C@@]3(COC(C)=O)[C@@H]1OC(C)=O)[C@]4(C)O | Non-Toxic | Active |  |  |
| CC(=O)O[C@H]1C[C@](C)(O)[C@]23OC(C)(C)[C@H](C[C@H](OC(=O)c4cccnc4)[C@]2(CO)[C@H]1OC(C)=O)[C@H]3OC(C)=O | Non-Toxic |  |  |  |
| CC(=O)OC[C@]12[C@H](OC(C)=O)C(=O)[C@@H]3[C@@H](OC(C)=O)[C@@]14O[C@@]3(C)COC(=O)c1cccnc1CC[C@@](C)(OC(C)=O)C(=O)O[C@@H]([C@H](OC(=O)c1cccnc1)[C@@H]2OC(C)=O)[C@]4(C)O | Non-Toxic |  |  |  |
| C/C=C(\C)C(=O)O[C@H]1C[C@@H]2[C@@H](OC(=O)c3ccccc3)[C@@]3(OC2(C)C)[C@@]1(COC(C)=O)[C@@H](OC(C)=O)[C@@H](OC(C)=O)C[C@]3(C)O | Non-Toxic | Active |  | 59.61 |
| C/C=C(\C)C(=O)O[C@H]1[C@@H]2[C@@H](OC(C)=O)[C@@]34O[C@@]2(C)COC(=O)c2cnccc2CC[C@@](C)(OC(C)=O)C(=O)O[C@@H]([C@H](OC(C)=O)[C@H](OC(C)=O)[C@@]3(COC(C)=O)[C@@H]1OC(C)=O)[C@]4(C)O | Non-Toxic | Active |  |  |
| C/C=C(\C)C(=O)O[C@@H]1[C@H](OC(C)=O)[C@@]2(COC(C)=O)[C@H](OC(C)=O)C(=O)[C@@H]3[C@@H](OC(C)=O)[C@@]24O[C@@]3(C)COC(=O)c2cccnc2CC[C@@](C)(OC(C)=O)C(=O)O[C@@H]1[C@]4(C)O | Non-Toxic | Active |  |  |
| C/C=C(\C)C(=O)O[C@@H]1[C@H](OC(C)=O)[C@@H]2[C@@H](OC(=O)/C(C)=C/C)[C@@]34O[C@@]2(C)COC(=O)c2cccnc2CC[C@H](C)C(=O)O[C@@H]([C@H](O)[C@H](O)[C@@]13COC(C)=O)[C@]4(C)O | Non-Toxic | Active |  |  |
| CC(=O)OC[C@]12[C@H](OC(C)=O)[C@@H](OC(C)=O)[C@@H]3[C@@H](OC(C)=O)[C@@]14O[C@@]3(C)COC(=O)c1cccnc1[C@@H](C)[C@H](C)C(=O)O[C@@H]([C@H](OC(=O)c1ccc(=O)n(C)c1)[C@@H]2OC(C)=O)[C@]4(C)O | Toxic |  |  |  |
| CC(=O)OC[C@]12[C@H](OC(C)=O)[C@@H](OC(C)=O)[C@@H]3[C@@H](OC(C)=O)[C@@]14O[C@@]3(C)COC(=O)c1cccnc1[C@@H](C)[C@H](C)C(=O)O[C@@H]([C@H](OC(C)=O)[C@@H]2OC(C)=O)[C@]4(C)O | Non-Toxic | Active |  |  |
| C/C=C(\C)C(=O)O[C@@H]1[C@H](OC(C)=O)[C@@]2(COC(C)=O)[C@H](OC(C)=O)C(=O)[C@@H]3[C@@H](O)[C@@]24O[C@@]3(C)COC(=O)c2cccnc2CC[C@@](C)(OC(C)=O)C(=O)O[C@@H]1[C@]4(C)O | Non-Toxic | Active |  |  |
| C/C=C(\C)C(=O)O[C@H]1[C@@H]2[C@@H](OC(C)=O)[C@@]34O[C@@]2(C)COC(=O)c2cccnc2CC[C@@](C)(OC(C)=O)C(=O)O[C@@H]([C@H](OC(C)=O)[C@H](OC(C)=O)[C@@]3(COC(C)=O)[C@@H]1OC(C)=O)[C@]4(C)O | Non-Toxic | Active |  |  |

Source: ChEMBL document CHEMBL5370590, “Densely Functionalized Macrocyclic Sesquiterpene Pyridine Alkaloids from Maytenus austroyunnanensis” (J Nat Prod, 2023)
